Values quoted from earlier work as cited in publication PMC9120017, “Inhibition mechanism of the chloride channel TMEM16A by the pore blocker 1PBC” (Nature Communications, 2022).

System: TMEM16A
Conditions: cited from earlier work

Structure (SMILES)	Inhibition of TMEM16A	Selectivity for anion channels of the TMEM16 family over the scramblase TMEM16F
O=C(O)c1c2ccccc2cc2ccccc12 [9-AC, 9-anthracene carboxylate]	inhibit TMEM16A	–
O=S(=O)(O)c1cc(N=C=S)ccc1C=Cc1ccc(N=C=S)cc1S(=O)(=O)O [DIDS, 4,4′-Diisothiocyanato-2,2′-stilbenedisulfonic acid]	inhibit TMEM16A	–
O=C(O)c1cccnc1Nc1cccc(C(F)(F)F)c1 [NFA]	–	selective for anion channels of the TMEM16 family over the scramblase TMEM16F
O=C(O)c1cc([N+](=O)[O-])ccc1NCCCc1ccccc1 [NPPB]	–	selective for anion channels of the TMEM16 family over the scramblase TMEM16F
O=C(Nc1ccc([N+](=O)[O-])cc1Cl)c1cc(Cl)ccc1O [niclosamide]	inhibit TMEM16A	–
